Measured values: patent publication US12622977B2, “Antibody drug conjugate” (CHIA TAI TIANQING PHARMACEUTICAL GROUP CO., LTD., priority 2020, dated 2026)

Experiments:
Type in all cases: cell-based
[1] = system: HER2 positive tumor cells NCI-N87; experiment: Proliferation inhibition of NCI-N87 cells by DXD and DDDXD (CCK-8); conditions: Homo sapiens, NCI-N87, 120 h
Description: DXD and DDDXD were pre-diluted to 140,000 ng/mL in culture medium and labeled as S1, and then five-fold serially diluted to obtain their corresponding reference samples S1-S9; the final drug concentration range was 35000 ng/mL to 0.0896 ng/mL with 9 concentrations in total. HER2 positive tumor cells NCI-N87 in the logarithmic growth phase were collected, adjusted to a density of 1×10^5 cells/mL, and plated at 100 μL per well, and a blank well without any cells was set as a control. The above serially diluted two samples were added at 50 μL per well. The plate was incubated in an incubator at 37° C. with 5% CO2 for 5 days. The culture medium was discarded, and CCK-8 (Dojindo, Japan, Cat. No. CK04) working solution was added at 100 μL per well. The plate was incubated for 4-5 h for color developing and placed in a microplate reader (manufacturer: Thermo, Model: VarioskanFlash). The absorbance values at a wavelength of 450 nm were read and recorded using a reference wavelength of 630 nm. The proliferation inhibition against the tumor cells were calculated.

[2] = system: NCI-N87 Her2++ tumor cells; experiment: Killing of Her2 positive target cell NCI-N87 with human PBMC effector cells (ADCC, CytoTox96); conditions: effector-to-target ratio 10:1
Description: The killing effects of the anti-Her2 bispecific antibodies on target cells (NCI-N87 Her2++, source: the Cell Bank of Type Culture Collection Committee of the Chinese Academy of Sciences) were studied using NK cells provided by human PBMCs (peripheral blood mononuclear cells), and the in vitro activity of the anti-Her2 bispecific antibodies was assessed by EC50 value.
The specific procedures are as follows: NCI-N87 cells were adjusted to a cell density of 3×10^5 cells/mL using 1640 medium containing 2% FBS (fetal bovine serum) and seeded in a 96-well cell culture plate (eppendorf, Cat. No. 0030730199) at 50 μL per well. […] Human PBMCs were adjusted to a cell density of 1.5×10^6 cells/mL using medium for experiment and added at 100 μL per well. An administration group (target cell+effector cell+antibody or control drug), a target cell group (NCI-N87 cell), an effector cell group (human PBMC), a target cell+effector cell group, a blank control group (medium) and a lysis solution control group, and a target cell maximum release group (target cell+lysis solution) were set, with the effector-to-target cell ratio being 10:1. […] After 45 min, the cell lysis rates were measured using a CytoTox96® nonradioactive cytotoxicity assay (Promega, G1780). […]

JIMT-1 tumor cells = experiment: Killing of trastuzumab-resistant cell JIMT-1 with human PBMC effector cells (ADCC, CytoTox96); conditions: effector-to-target ratio 20:1
Description: The killing effects of the anti-Her2 bispecific antibodies on target cells (JIMT-1, source: AddexBio, Cat. No. C0006005) were studied using NK cells provided by human PBMCs (peripheral blood mononuclear cells), and the in vitro activity of the anti-Her2 bispecific antibodies was assessed by EC50 value.
The specific procedures are as follows: JIMT-1 cells were adjusted to a cell density of 3×10^5 cells/mL using 1640 medium containing 2% FBS (fetal bovine serum) and seeded in a 96-well cell culture plate (eppendorf, Cat. No. 0030730199) at 50 μL per well. […] Human PBMCs were adjusted to a cell density of 1.5×10^6 cells/mL using medium for experiment and added at 100 μL per well. An administration group (target cell+effector cell+antibody or control drug), a target cell group (JIMT-1BT474 cell), an effector cell group (human PBMC), a target cell+effector cell group, a blank control group (medium) and a lysis solution control group, and a target cell maximum release group (target cell+lysis solution) were set, with the effector-to-target cell ratio being 20:1. 45 min prior to the assay, 20 μL/well of lysis solution (Promega, Cat. No. G182A) was added to the target cell maximum release group and the lysis solution control group. After 45 min, the cell lysis rates were measured using a CytoTox96® nonradioactive cytotoxicity assay (Promega, G1780). […]

Molecule | IC50 [1] | EC50 [2] | EC50 (JIMT-1 tumor cells)
CC[C@@]1(O)C(=O)OCc2c1cc1n(c2=O)Cc2c-1nc1cc(F)c(C)c3c1c2[C@@H](NC(=O)CO)CC3 [DXD] | 4450 pM |  | 
T-DM1 |  | 73.9 pM | 83.6 pM
